Results from patent publication US12702689B2, “Anti-inflammatory compositions, and uses thereof” (P.L. THOMAS & CO., INC., priority 2022, dated 2026).

Tests used:
[1] = tested on: airway reactivity to acetyl-β-methacholine chloride; experiment: Airway hyperresponsiveness: total respiratory system resistance (Rrs) to methacholine, flexiVent; format: in vivo, BALB/cJ female mice; conditions: for total respiratory system resistance (Rrs) in response to methacholine: OVA+AKBA mice
From the text: Allergic airway phenotype was induced by using an ovalbumin (OVA, hen egg) sensitization and challenge model as previously described with modifications [Beigelman, A. et al. Azithromycin attenuates airway inflammation in a noninfectious mouse model of allergic asthma. Chest 136, 498-506 (2009)]. Briefly (FIG. 1), two groups of mice (OVA control and OVA+AKBA) were sensitized with intraperitoneal ovalbumin plus alum on days 0 and 7, challenged for 3 days (day 14 to day 17) via nebulized OVA at 1% in PBS for 30 mins, and harvested 48 hr after final challenge. Supplementation groups (OVA+AKBA) were given 100 mg/kg of water soluble AKBA (pH 7) (PLT Health Solutions, Morristown, NJ, US) in autoclaved mouse water, via gavage, every other day for 10 days and then every day for the remainder of the experiment (9 days). OVA control and naïve mouse continued to receive normal autoclaved mouse water. Mice were weighted at the beginning and end of the experiment. Experiments involving AKBA were conducted twice, with the first group containing 5 mice per group and the second containing 15 mice per group (5 per group for naive). Experiment procedures were identical, and results were pooled for n=20 (n=5 for naive). Animal protocol 102063-0522 was approved by the University of Connecticut Health IACUC board.
Airway reactivity was assessed based on total respiratory system resistance (Rrs) response to increasing doses (0-100 mg/ml) of acetyl-β-methacholine chloride (Sigma-Aldrich, St. Louis, MO). Mice were […] (150 mg/kg ketamine and 10 mg/kg xylazine), underwent tracheostomies and were mechanically ventilated using the flexiVent system (SCIREQ, Montreal, CA). Airway reactivity was determined by assessing forced oscillatory mechanics every 10 s for 4 min following each methacholine challenge.

[2] = tested on: BAL leukocytes and eosinophils; experiment: BAL fluid total and differential cell counts in OVA allergic airway model; format: in vivo, BALB/cJ female mice; conditions: 100 mg/kg AKBA
[3] = tested on: gut microbiota including Akkermansia; Bifidobacteria; conditions: in vitro; cited from earlier work
[4] = tested on: gut microbiome (Bifidobacterium); conditions: healthy mice; cited from earlier work

## CC(=O)O[C@@H]1CC[C@@]2(C)[C@@H](CC[C@]3(C)[C@@H]2C(=O)C=C2[C@@H]4[C@@H](C)[C@H](C)CC[C@]4(C)CC[C@]23C)[C@@]1(C)C(=O)O [AKBA, 3-O-acetyl-11-keto-b-boswellic acid]
[1]; methacholine 12.5 mg, p=0.02 vs OVA control
  total respiratory system resistance (Rrs) in response to methacholine: 2.38±0.55
[1]; methacholine 25 mg, p=0.04 vs OVA control
  total respiratory system resistance (Rrs) in response to methacholine: 3.56±1.25
[1]; higher methacholine concentrations (above 25 mg)
  difference in Rrs between OVA control and OVA+AKBA: No significant difference
[1]; methacholine 0 mg/mL, ANOVA p=0.341
  difference in Rrs between all three groups: No significant difference
[2]; Mann-Whitney p=0.0002
  BAL total leukocyte counts lower versus OVA control group: 46.69%
[2]; Mann-Whitney p=0.0212
  BAL total leukocyte counts higher than naïve control: 60.38%
[2]; OVA+AKBA mice
  percent eosinophil in BAL: 31.4%
[2]; OVA+AKBA mice, mean±SD
  absolute number of eosinophils in BAL: 17317.95±5552.67 eosinophil/mL
[3]
  effect on certain gut microbiota including Akkermansia: selectively inhibited
  feeding effect on Bifidobacteria: no direct feeding effect
[4]
  relative abundances of Bifidobacterium: increases
